The results in this text go back to ChEMBL document CHEMBL1150177, “Antineoplastic agents, 178. Isolation and structure of lychnostatins 1 and 2 from the South American Lychnophora antillana” (1990).

This test relates to P388. Kind of test: Cytotoxicity against mouse P388 cells. In kind it is functional. Conditions: read-out: ED50 (the source's name).

Converted amounts (≈) assume the structure as drawn.

`C=C(C)C(=O)O[C@H]1C[C@@](C)(OC(C)=O)C(=O)CC[C@H](C)C[C@H]2OC(=O)C(=C)[C@H]12` [LYCHNOSTATIN 2]: the EC50 was found to be 0.19 µg/mL (≈ 0.484 µM).

For `C=C(C)C(=O)O[C@H]1C[C@@](C)(OC(C)=O)C(=O)CC[C@H](C)[C@H](O)[C@H]2OC(=O)C(=C)[C@@H]21` [LYCHNOSTATIN 1], the EC50 was 2 µg/mL (≈ 4.9 µM).
